Species: Rattus norvegicus
Assay: DrugMatrix - Regimen: Daily Repeat
Type: toxicity, organism-based, Sprague-Dawley
Parameters: regimen Daily Repeat, gender Male, age 6-8 weeks
Settings: in vivo, po, route oral GAVAGE, vehicle 100 % SALINE; for ABSOLUTE BASOPHIL / ABSOLUTE EOSINOPHIL / ABSOLUTE LYMPHOCYTE / ABSOLUTE MONOCYTE / ABSOLUTE SEGMENTED NEUTROPHIL / BASOPHIL / EOSINOPHIL / ERYTHROCYTE COUNT / HEMATOCRIT / LEUKOCYTE COUNT / MEAN CORPUSCULAR HEMOGLOBIN CONCENTRATION / MONOCYTE / NEUTROPHIL / NUCLEATED RED BLOOD CELLS / PLATELET COUNT / HEMOGLOBIN / LYMPHOCYTE / MEAN CORPUSCULAR HEMOGLOBIN / MEAN CORPUSCULAR VOLUME: tissue Blood
[1] = 0 mg/kg, 72 h, dose level Control, time 3 day
[2] = 0 mg/kg, 72 h, tissue Plasma, dose level Control, time 3 day
[3] = 0 mg/kg, 120 h, dose level Control, time 5 day
[4] = 0 mg/kg, 120 h, tissue Plasma, dose level Control, time 5 day
[5] = 200 mg/kg, 72 h, dose level Low, time 3 day
[6] = 200 mg/kg, 72 h, tissue Plasma, dose level Low, time 3 day
[7] = 200 mg/kg, 120 h, dose level Low, time 5 day
[8] = 200 mg/kg, 120 h, tissue Plasma, dose level Low, time 5 day
[9] = 600 mg/kg, 72 h, dose level High, time 3 day
[10] = 600 mg/kg, 72 h, tissue Plasma, dose level High, time 3 day
[11] = 600 mg/kg, 120 h, dose level High, time 5 day
[12] = 600 mg/kg, 120 h, tissue Plasma, dose level High, time 5 day

## LEAD(IV) ACETATE
[1]
  ABSOLUTE BASOPHIL: 0 CELLS/uL
  ABSOLUTE EOSINOPHIL: 37 CELLS/uL
  ABSOLUTE LYMPHOCYTE: 12359.33 CELLS/uL
  ABSOLUTE MONOCYTE: 122.67 CELLS/uL
  ABSOLUTE SEGMENTED NEUTROPHIL: 847.67 CELLS/uL
  BASOPHIL: 0%
  EOSINOPHIL: 0.33%
  ERYTHROCYTE COUNT: 5.75 x10E6/uL
  HEMATOCRIT: 36.08%
  LEUKOCYTE COUNT: 13.37 x10E3/uL
  MEAN CORPUSCULAR HEMOGLOBIN CONCENTRATION: 38.98 G/DL
  MONOCYTE: 1%
  NEUTROPHIL: 6.17%
  NUCLEATED RED BLOOD CELLS: 0.17 /100WBC
  PLATELET COUNT: 1202.17 x10E3/uL
[2]
  ALANINE AMINOTRANSFERASE: 50.67 u/L
  ALKALINE PHOSPHATASE: 356.33 u/L
  ASPARTATE AMINOTRANSFERASE: 78.17 u/L
  BLOOD UREA NITROGEN: 14.17 mg/dL
  CARBON DIOXIDE: 31.33 mmol/L
  CHLORIDE: 98.5 MEQ/L
  CHOLESTEROL: 76.5 mg/dL
  CREATINE PHOSPHOKINASE: 248.33 u/L
  CREATININE: 0.2 mg/dL
  LACTATE DEHYDROGENASE: 107 u/L
  LIPASE: 9.83 u/L
  PHOSPHORUS: 12.8 mg/dL
  POTASSIUM: 6.75 MEQ/L
  TOTAL BILIRUBIN: 0.18 mg/dL
  TOTAL PROTEIN: 5.98 G/DL
  URIC ACID: 1.42 mg/dL
[3]
  ABSOLUTE BASOPHIL: 0 CELLS/uL
  ABSOLUTE EOSINOPHIL: 0 CELLS/uL
  ABSOLUTE LYMPHOCYTE: 8681.17 CELLS/uL
  ABSOLUTE MONOCYTE: 79.83 CELLS/uL
  ABSOLUTE SEGMENTED NEUTROPHIL: 689 CELLS/uL
  BASOPHIL: 0%
  EOSINOPHIL: 0%
  ERYTHROCYTE COUNT: 5.49 x10E6/uL
  HEMATOCRIT: 33.55%
  HEMOGLOBIN: 13.1 G/DL
  LEUKOCYTE COUNT: 9.45 x10E3/uL
  LYMPHOCYTE: 92.33%
  MEAN CORPUSCULAR HEMOGLOBIN: 23.92 pg
  MEAN CORPUSCULAR HEMOGLOBIN CONCENTRATION: 39.07 G/DL
  MONOCYTE: 0.67%
  NEUTROPHIL: 7%
  NUCLEATED RED BLOOD CELLS: 0.17 /100WBC
  PLATELET COUNT: 1001.17 x10E3/uL
[4]
  ALANINE AMINOTRANSFERASE: 49.33 u/L
  ALKALINE PHOSPHATASE: 300.33 u/L
  ASPARTATE AMINOTRANSFERASE: 83.5 u/L
  BLOOD UREA NITROGEN: 16 mg/dL
  CHLORIDE: 100.5 MEQ/L
  CHOLESTEROL: 74.33 mg/dL
  CREATINE PHOSPHOKINASE: 489.67 u/L
  CREATININE: 0.35 mg/dL
  GLUCOSE: 151 mg/dL
  LACTATE DEHYDROGENASE: 133.67 u/L
  LIPASE: 11.17 u/L
  PHOSPHORUS: 10.88 mg/dL
  POTASSIUM: 5.5 MEQ/L
  SODIUM: 145.7 MEQ/L
  TOTAL BILIRUBIN: 0.2 mg/dL
  TOTAL PROTEIN: 6.05 G/DL
  URIC ACID: 0.68 mg/dL
[5]
  ABSOLUTE BASOPHIL: 0 CELLS/uL
  ABSOLUTE EOSINOPHIL: 125.67 CELLS/uL
  ABSOLUTE LYMPHOCYTE: 10005 CELLS/uL
  ABSOLUTE MONOCYTE: 182.33 CELLS/uL
  ABSOLUTE SEGMENTED NEUTROPHIL: 487 CELLS/uL
  BASOPHIL: 0%
  EOSINOPHIL: 1%
  ERYTHROCYTE COUNT: 5.79 x10E6/uL
  HEMATOCRIT: 34.9%
  HEMOGLOBIN: 13.63 G/DL
  LEUKOCYTE COUNT: 10.8 x10E3/uL
  LYMPHOCYTE: 92.67%
  MEAN CORPUSCULAR HEMOGLOBIN: 23.53 pg
  MEAN CORPUSCULAR HEMOGLOBIN CONCENTRATION: 39.07 G/DL
  MEAN CORPUSCULAR VOLUME: 60.3 fL
  NEUTROPHIL: 5%
  NUCLEATED RED BLOOD CELLS: 0 /100WBC
  PLATELET COUNT: 964.33 x10E3/uL
[6]
  ALANINE AMINOTRANSFERASE: 55.67 u/L
  ALKALINE PHOSPHATASE: 341.67 u/L
  ASPARTATE AMINOTRANSFERASE: 108 u/L
  BLOOD UREA NITROGEN: 12.67 mg/dL
  CARBON DIOXIDE: 29.33 mmol/L
  CHLORIDE: 100 MEQ/L
  CHOLESTEROL: 73.67 mg/dL
  CREATINE PHOSPHOKINASE: 327.67 u/L
  CREATININE: 0.26 mg/dL
  GLUCOSE: 150.33 mg/dL
  LACTATE DEHYDROGENASE: 126.67 u/L
  LIPASE: 14.33 u/L
  POTASSIUM: 6.03 MEQ/L
  TOTAL BILIRUBIN: 0.0667 mg/dL
  TOTAL PROTEIN: 5.93 G/DL
  URIC ACID: 1.2 mg/dL
[7]
  ABSOLUTE BASOPHIL: 0 CELLS/uL
  ABSOLUTE EOSINOPHIL: 0 CELLS/uL
  ABSOLUTE LYMPHOCYTE: 11837.33 CELLS/uL
  ABSOLUTE MONOCYTE: 82.67 CELLS/uL
  ABSOLUTE SEGMENTED NEUTROPHIL: 680 CELLS/uL
  BASOPHIL: 0%
  EOSINOPHIL: 0%
  ERYTHROCYTE COUNT: 5.76 x10E6/uL
  HEMOGLOBIN: 13.8 G/DL
  LEUKOCYTE COUNT: 12.6 x10E3/uL
  LYMPHOCYTE: 93.67%
  MEAN CORPUSCULAR HEMOGLOBIN: 23.93 pg
  MEAN CORPUSCULAR HEMOGLOBIN CONCENTRATION: 39.23 G/DL
  MEAN CORPUSCULAR VOLUME: 61.03 fL
  MONOCYTE: 0.67%
  NEUTROPHIL: 5.67%
  NUCLEATED RED BLOOD CELLS: 0.33 /100WBC
  PLATELET COUNT: 1075 x10E3/uL
[8]
  ALANINE AMINOTRANSFERASE: 43.33 u/L
  ALKALINE PHOSPHATASE: 339 u/L
  ASPARTATE AMINOTRANSFERASE: 80 u/L
  BLOOD UREA NITROGEN: 13.33 mg/dL
  CARBON DIOXIDE: 33 mmol/L
  CHLORIDE: 99 MEQ/L
  CHOLESTEROL: 74.67 mg/dL
  CREATINE PHOSPHOKINASE: 263.33 u/L
  CREATININE: 0.31 mg/dL
  GLUCOSE: 134 mg/dL
  LACTATE DEHYDROGENASE: 132.67 u/L
  LIPASE: 14.33 u/L
  PHOSPHORUS: 11.33 mg/dL
  POTASSIUM: 5.88 MEQ/L
  SODIUM: 146.7 MEQ/L
  TOTAL BILIRUBIN: 0.17 mg/dL
  TOTAL PROTEIN: 6.4 G/DL
  URIC ACID: 0.57 mg/dL
[9]
  ABSOLUTE BASOPHIL: 0 CELLS/uL
  ABSOLUTE EOSINOPHIL: 0 CELLS/uL
  ABSOLUTE LYMPHOCYTE: 6951.33 CELLS/uL
  ABSOLUTE MONOCYTE: 49.33 CELLS/uL
  ABSOLUTE SEGMENTED NEUTROPHIL: 532.67 CELLS/uL
  BASOPHIL: 0%
  EOSINOPHIL: 0%
  ERYTHROCYTE COUNT: 5.19 x10E6/uL
  HEMATOCRIT: 32%
  HEMOGLOBIN: 12.7 G/DL
  LEUKOCYTE COUNT: 7.53 x10E3/uL
  LYMPHOCYTE: 92%
  MEAN CORPUSCULAR HEMOGLOBIN CONCENTRATION: 39.7 G/DL
  MONOCYTE: 0.67%
  NEUTROPHIL: 7.33%
  NUCLEATED RED BLOOD CELLS: 0 /100WBC
  PLATELET COUNT: 1337.33 x10E3/uL
[10]
  ALANINE AMINOTRANSFERASE: 41.67 u/L
  ALBUMIN: 4 G/DL
  ALKALINE PHOSPHATASE: 253 u/L
  ASPARTATE AMINOTRANSFERASE: 83 u/L
  BLOOD UREA NITROGEN: 10.33 mg/dL
  CARBON DIOXIDE: 27 mmol/L
  CHOLESTEROL: 81.33 mg/dL
  CREATINE PHOSPHOKINASE: 396 u/L
  CREATININE: 0.38 mg/dL
  LACTATE DEHYDROGENASE: 126.67 u/L
  LIPASE: 11.33 u/L
  POTASSIUM: 5.16 MEQ/L
  TOTAL BILIRUBIN: 0.1 mg/dL
  URIC ACID: 0.83 mg/dL
[11]
  ABSOLUTE BASOPHIL: 0 CELLS/uL
  ABSOLUTE EOSINOPHIL: 0 CELLS/uL
  ABSOLUTE LYMPHOCYTE: 13230 CELLS/uL
  ABSOLUTE MONOCYTE: 139 CELLS/uL
  ABSOLUTE SEGMENTED NEUTROPHIL: 1031 CELLS/uL
  BASOPHIL: 0%
  EOSINOPHIL: 0%
  ERYTHROCYTE COUNT: 6.04 x10E6/uL
  HEMATOCRIT: 35.43%
  HEMOGLOBIN: 13.83 G/DL
  LEUKOCYTE COUNT: 14.4 x10E3/uL
  LYMPHOCYTE: 92%
  MEAN CORPUSCULAR HEMOGLOBIN: 22.97 pg
  MEAN CORPUSCULAR HEMOGLOBIN CONCENTRATION: 39.07 G/DL
  MEAN CORPUSCULAR VOLUME: 58.67 fL
  MONOCYTE: 1%
  NEUTROPHIL: 7%
  NUCLEATED RED BLOOD CELLS: 0.33 /100WBC
  PLATELET COUNT: 1226 x10E3/uL
[12]
  ALANINE AMINOTRANSFERASE: 46.33 u/L
  ALKALINE PHOSPHATASE: 257 u/L
  ASPARTATE AMINOTRANSFERASE: 82 u/L
  BLOOD UREA NITROGEN: 11.67 mg/dL
  CARBON DIOXIDE: 35 mmol/L
  CHLORIDE: 97.67 MEQ/L
  CHOLESTEROL: 86 mg/dL
  CREATINE PHOSPHOKINASE: 294 u/L
  CREATININE: 0.19 mg/dL
  LACTATE DEHYDROGENASE: 99 u/L
  PHOSPHORUS: 10.3 mg/dL
  POTASSIUM: 5.89 MEQ/L
  TOTAL BILIRUBIN: 0.13 mg/dL
  TOTAL PROTEIN: 6 G/DL
  URIC ACID: 0.7 mg/dL

Source: ChEMBL document CHEMBL3885881, “DrugMatrix”
